# Data taken from article PMC9025560, “A Comparison of Evans Blue and 4-(p-Iodophenyl)butyryl Albumin Binding Moieties on an Integrin αvβ6 Binding Peptide” (Pharmaceutics, 2022).
# Like-named read-outs stand apart in the source and are kept apart here.
# Columns and labels:
# [1] = Stability in mouse serum at 37 °C; assay type: in vitro ADME
# Protocol: For serum stability, mouse serum or human serum (0.5 mL, both purchased from Sigma-Aldrich) was combined with an aliquot of each of the peptides [^64Cu]1 and [^64Cu]2 (≤25 μL, 14.8–22.2 MBq) and incubated at 37 °C. At each time point (1, 4, and 24 h) an aliquot (50–200 μL) was taken, proteins precipitated with ethanol, and removed by pelleting at 1500 (RCF) for 4 min. The ethanol solution was diluted with water (1 mL) and analyzed by RP-HPLC as previously described.
# BxPC-3 xenograft tumors = assay: Biodistribution in mice bearing BxPC-3 xenograft tumors; assay type: in vivo
# Protocol: All animal procedures conformed to the Animal Welfare Act and were approved by the University of California, Davis Institutional Animal Care and Use Committee. Female athymic nu/nu-nude mice (6–8 weeks old) were purchased from Charles River Laboratories (Wilmington, MA, USA) and provided food and water on an ad libitum basis. BxPC-3 xenografts were implanted according to previous methods. Briefly, BxPC-3 cells were evaluated by flow cytometry to confirm integrin αvβ6 expression levels, injected subcutaneously into the left flank [5 million in 100 μL of a 1:1 mixture of serum-free RPMI and GFR Matrigel (Corning, New York, NY, USA)], and allowed to grow for approximately 3 weeks until tumors reached a diameter of 0.5–1 cm.
# For biodistribution studies the [^64Cu]1–4 (3.7–5.55 MBq) in PBS (100 μL, pH 7.2) was injected intravenously (i.v.) via catheter into the tail vein. Following a conscious uptake period, the mice were anesthetized (5% isoflurane), euthanized, and dissected ([^64Cu]1 and [^64Cu]2, n = 3/radiolabeled peptide/time point; 4, 24, and 48 h p.i.; the 72 h time point was obtained from the imaging animals after the 72 h PET/CT scans; compounds [^64Cu]3 and [^64Cu]4, n = 2/radiolabeled compound at 4 h p.i.). Tissues were rapidly collected, weighed, and radioactivity measured with a γ-counter. Decay-corrected radioactivity concentrations are expressed as the percentage of injected dose per gram of tissue (% ID/g). Data are reported as mean ± standard deviation (SD) (Figure S20, S21 and S25).
# [2] = Blocking biodistribution with pre-administered metal free peptide; assay type: in vivo, mice; conditions: female, athymic nu/nu-nude, mouse, intravenous, total radioactivity, 4 h p.i., metal free peptide 10 min before, n = 1
# Protocol: For blocking studies, the metal free peptides 1 or 2 (~220 nmol, 1.3 mg in 100 μL PBS), respectively, were injected i.v. (n = 1/peptide) as described above 10 min prior to the injection of matching radiolabeled [^64Cu]1 or [^64Cu]2 (3.7–5.55 MBq, 100 μL PBS). After a conscious 4 h uptake period, the animals were anesthetized, sacrificed, tissues rapidly collected, and analyzed as described above. Decay-corrected radioactivity concentrations are expressed as a percentage of injected dose per gram of tissue (% ID/g) (Figure S23).
compound,measurement,setting,value
"CC(C)C[C@H](NC(=O)[C@H](CC(=O)O)NC(=O)CNC(=O)[C@H](CCCNC(=N)N)NC(=O)[C@H](CC(C)C)NC(=O)[C@H](CC(N)=O)NC(=O)[C@@H]1CCCN1C(=O)[C@@H](NC(=O)[C@H](C)NC(=O)[C@H](CC(N)=O)NC(=O)CCOCCOCCOCCOCCOCCOCCOCCOCCOCCOCCOCCOCCOCCOCCOCCOCCOCCOCCOCCOCCOCCOCCOCCOCCOCCOCCOCCOCCNC(=O)[C@H](CCCCNC(=O)[C@H](CC(=O)O)NC(=O)CCCNC(=O)CCCc1ccc(I)cc1)NC(=O)CN1CCN(CC(=O)O)CCN(CC(=O)O)CCN(CC(=O)O)CC1)C(C)C)C(=O)N[C@@H](CCC(N)=O)C(=O)N[C@H](C(=O)N[C@@H](CC(C)C)C(=O)N[C@@H](C)C(=O)N[C@@H](CCC(N)=O)C(=O)N[C@@H](CCCNC(=N)N)C(=O)N[C@H](C(=O)N[C@@H](C)C(=O)N[C@@H](CCCNC(=N)N)C(=O)N[C@H](C(=O)NCCOCCOCCOCCOCCOCCOCCOCCOCCOCCOCCOCCOCCOCCOCCOCCOCCOCCOCCOCCOCCOCCOCCOCCOCCOCCOCCOCCOCCC(N)=O)[C@@H](C)O)C(C)C)C(C)C [[^64Cu]2, [^64Cu]Cu DOTA-IP-αvβ6-BP, metal not drawn]",Fold higher stability than [64Cu]1 in mouse serum,[1]; 24 h,3.4 fold
same,remaining at 1 h,"[1]; mouse, mouse serum, 1 h, read-out: Stability in mouse serum, % intact",92%
same,remaining at 4 h,"[1]; mouse, mouse serum, 4 h, read-out: Stability in mouse serum, % intact",83%
same,remaining at 24 h,"[1]; mouse, mouse serum, 24 h, read-out: Stability in mouse serum, % intact",48%
same,Tumor-Blood ratio,BxPC-3 xenograft tumors; 4 h p.i.,> 4/1
same,Tumor-Kidney ratio,BxPC-3 xenograft tumors; 4 h p.i.,0.23 ± 0.02
same,Tumor-Lg Intestines ratio,BxPC-3 xenograft tumors; 4 h p.i.,0.78 ± 0.10
same,Tumor-Liver ratio,BxPC-3 xenograft tumors; 4 h p.i.,3.2–4.9
same,Tumor-Muscle ratio,BxPC-3 xenograft tumors; 4 h p.i.,> 8/1
same,Tumor-Sm Intestines ratio,BxPC-3 xenograft tumors; 4 h p.i.,0.80 ± 0.07
same,Tumor-Stomach ratio,BxPC-3 xenograft tumors; 4 h p.i.,0.43 ± 0.07
same,BxPC-3 Tumor uptake,"BxPC-3 xenograft tumors; 4 h p.i., i.v.",> 7.5 % ID/g
same,Kidneys uptake,"BxPC-3 xenograft tumors; 4 h p.i., i.v.",33.6 ± 5.4 % ID/g
same,Stomach uptake,"BxPC-3 xenograft tumors; 4 h p.i., i.v.",18.1 ± 2.9 % ID/g
same,Tumor-Blood ratio,"BxPC-3 xenograft tumors; 4 h p.i., listed as [64Cu]2",6.15 ± 0.47
same,Tumor-Liver ratio,"BxPC-3 xenograft tumors; 4 h p.i., listed as [64Cu]2",4.89 ± 0.63
same,Tumor-Muscle ratio,"BxPC-3 xenograft tumors; 4 h p.i., listed as [64Cu]2",8.16 ± 2.41
same,Tumor-Blood ratio,BxPC-3 xenograft tumors; 24 h p.i.,21.86 ±5.94
same,Tumor-Kidney ratio,BxPC-3 xenograft tumors; 24 h p.i.,0.20 ± 0.06
same,Tumor-Lg Intestines ratio,BxPC-3 xenograft tumors; 24 h p.i.,0.81 ±0.24
same,Tumor-Liver ratio,BxPC-3 xenograft tumors; 24 h p.i.,2.72 ± 0.62
same,Tumor-Muscle ratio,BxPC-3 xenograft tumors; 24 h p.i.,5.87 ±2.04
same,Tumor-Sm Intestines ratio,BxPC-3 xenograft tumors; 24 h p.i.,0.97 ±0.27
same,Tumor-Stomach ratio,BxPC-3 xenograft tumors; 24 h p.i.,0.39 ±0.09
same,Tumor-Blood ratio,BxPC-3 xenograft tumors; 48 h p.i.,22.11 ± 14.41
same,Tumor-Kidney ratio,BxPC-3 xenograft tumors; 48 h p.i.,0.35 ± 0.14
same,Tumor-Lg Intestines ratio,BxPC-3 xenograft tumors; 48 h p.i.,1.10 ± 0.47
same,Tumor-Liver ratio,BxPC-3 xenograft tumors; 48 h p.i.,2.46 ± 0.97
same,Tumor-Muscle ratio,BxPC-3 xenograft tumors; 48 h p.i.,6.68 ± 2.42
same,Tumor-Sm Intestines ratio,BxPC-3 xenograft tumors; 48 h p.i.,1.81 ± 0.61
same,Tumor-Stomach ratio,BxPC-3 xenograft tumors; 48 h p.i.,0.67 ± 0.27
same,Tumor-Blood ratio,BxPC-3 xenograft tumors; 72 h p.i.,28.82 ± 2.64
same,Tumor-Kidney ratio,BxPC-3 xenograft tumors; 72 h p.i.,0.44 ± 0.14
same,Tumor-Lg Intestines ratio,BxPC-3 xenograft tumors; 72 h p.i.,1.63 ±0.32
same,Tumor-Liver ratio,BxPC-3 xenograft tumors; 72 h p.i.,3.77 ± 0.72
same,Tumor-Muscle ratio,BxPC-3 xenograft tumors; 72 h p.i.,6.70 ±1.74
same,Tumor-Sm Intestines ratio,BxPC-3 xenograft tumors; 72 h p.i.,4.01 ±1.10
same,Tumor-Stomach ratio,BxPC-3 xenograft tumors; 72 h p.i.,1.55 ±0.08
same,Fold increase in tumor accumulation over non-ABM [64Cu]Cu DOTA-αvβ6-BP,BxPC-3 xenograft tumors; BxPC-3 tumor model,> 3 fold
same,tissue uptake at 4 h,"[2]; BxPC-3 tumor, read-out: BxPC-3 Tumor uptake, blocked",2.89 %ID/g
same,tissue uptake at 4 h,"[2]; blood, read-out: Blood uptake, blocked",3.98 %ID/g
same,tissue uptake at 4 h,"[2]; bone, read-out: Bone uptake, blocked",0.5 %ID/g
same,tissue uptake at 4 h,"[2]; brain, read-out: Brain uptake, blocked",0.09 %ID/g
same,tissue uptake at 4 h,"[2]; gall bladder, read-out: Gall Bladder uptake, blocked",1.64 %ID/g
same,tissue uptake at 4 h,"[2]; heart, read-out: Heart uptake, blocked",1.31 %ID/g
same,tissue uptake at 4 h,"[2]; kidneys, read-out: Kidneys uptake, blocked",16.8 %ID/g
same,tissue uptake at 4 h,"[2]; large intestines, read-out: Lg. Intestines uptake, blocked",1.26 %ID/g
same,tissue uptake at 4 h,"[2]; liver, read-out: Liver uptake, blocked",2.04 %ID/g
same,tissue uptake at 4 h,"[2]; lung, read-out: Lung uptake, blocked",2.08 %ID/g
same,tissue uptake at 4 h,"[2]; muscle, read-out: Muscle uptake, blocked",0.5 %ID/g
same,tissue uptake at 4 h,"[2]; pancreas, read-out: Pancreas uptake, blocked",0.76 %ID/g
same,tissue uptake at 4 h,"[2]; skin, read-out: Skin uptake, blocked",1.26 %ID/g
same,tissue uptake at 4 h,"[2]; small intestines, read-out: Sm. Intestines uptake, blocked",1.18 %ID/g
same,tissue uptake at 4 h,"[2]; stomach, read-out: Stomach uptake, blocked",1.2 %ID/g
